Experiments:
Type in all cases: in vivo
[1] = test system: pigweed (Amaranthus retroflexus); assay: Test C preemergence, plant response rating; details: for Plant response rating, Pigweed: Preemergence; for Pigweed plant response rating: preemergence
[2] = test system: barnyardgrass (Echinochloa crus-galli); assay: Test C preemergence, plant response rating; details: for pest or weed control at 62 g/ha / pest or weed control at 125 g/ha / pest or weed control at 16 g/ha / pest or weed control at 31 g/ha: Echinochloa crus-galli, pre-emergence; for pest or weed control at 62 g/ha / pest or weed control at 125 g/ha / pest or weed control at 16 g/ha / pest or weed control at 31 g/ha / Plant response rating, Barnyardgrass: Preemergence; for Barnyardgrass plant response rating: preemergence
[3] = test system: pigweed (Amaranthus retroflexus); assay: Test C postemergence, plant response rating; details: for pest or weed control at 62 g/ha / pest or weed control at 125 g/ha / Pigweed plant response rating: scale 0 to 100 (0 no effect, 100 complete control)
Method in brief: (§1)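 Pre-emergence: seeds sown in loam soil–sand blend or silt loam and sprayed with test chemicals in a non-phytotoxic solvent mixture with surfactant. Post-emergence: plants 2 to 18 cm (1- to 4-leaf stage) in peat-based potting medium, same formulation. Greenhouse 13 to 15 d; visual rating 0 (no effect) to 100 (complete control) versus controls.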

[4] = test system: galium (catchweed bedstraw, Galium aparine); assay: Test C preemergence, plant response rating
[5] = test system: johnsongrass (Sorghum halepense); assay: Test C preemergence, plant response rating
[6] = test system: johnsongrass (Sorghum halepense); assay: Test C postemergence, plant response rating; details: for Plant response rating, Johnsongrass: scale 0 to 100; for Johnsongrass plant response rating: scale 0 to 100 (0 no effect, 100 complete control)
Method in brief: as §1

[7] = Amaranthus retroflexus, post-emergence, 16 g ai/ha, scale 0 to 100
[8] = Amaranthus retroflexus, post-emergence, 31 g ai/ha, scale 0 to 100
[9] = Amaranthus retroflexus, post-emergence, 62 g ai/ha
[10] = Amaranthus retroflexus, post-emergence, 125 g ai/ha

Row | SMILES | Plant response rating, Pigweed ([1]; 125 g ai/ha, scale of 0 to 100) | Plant response rating, Pigweed ([1]; 16 g ai/ha, scale 0 to 100) | Plant response rating, Pigweed ([1]; 31 g ai/ha, scale 0 to 100) | Plant response rating, Pigweed ([1]; 62 g ai/ha, scale 0 to 100) | pest or weed control at 62 g/ha ([2]; 62 g ai/ha, scale of 0 to 100) | pest or weed control at 125 g/ha ([2]; 125 g ai/ha, scale of 0 to 100) | pest or weed control at 16 g/ha ([2]; 16 g ai/ha, scale 0 to 100) | pest or weed control at 31 g/ha ([2]; 31 g ai/ha, scale 0 to 100) | pest or weed control at 16 g/ha [3, 7] | pest or weed control at 31 g/ha [3, 8] | pest or weed control at 62 g/ha [3, 9] | pest or weed control at 125 g/ha [3, 10] | Plant response rating, Pigweed ([3]; 31 g ai/ha, scale 0 to 100) | Pigweed plant response rating ([3]; 62 g ai/ha) | Pigweed plant response rating ([3]; 125 g ai/ha) | Plant response rating, Galium ([4]; 16 g ai/ha, scale 0 to 100) | Plant response rating, Galium ([4]; 31 g ai/ha, scale 0 to 100) | Plant response rating, Galium ([4]; 62 g ai/ha, scale of 0 to 100) | Plant response rating, Galium ([4]; 125 g ai/ha, scale of 0 to 100) | also measured
1 | O=C(OCCC(F)(F)F)c1c(Cl)cccc1Oc1ncc(Cl)cn1 [Compound 15, 3,3,3-trifluoropropyl 2-chloro-6-[(5-chloro-2-pyrimidinyl)oxy]benzoate] | 100 | 98 | 100 | 100 | 100% | 100% | 10% | 85% | 90% | 90% | 95% | 98% | – | – | – | – | – | – | – | –
2 | N#CCCOC(=O)c1c(Br)cccc1Oc1ncc(Cl)cn1 [Compound 7] | – | – | – | – | – | – | – | – | – | – | – | – | 40 | 60 | 70 | – | – | – | – | Plant response rating, Pigweed ([3]; 16 g ai/ha, scale 0 to 100): 35
3 | N#Cc1cccc(Oc2ncc(Cl)cn2)c1CCCCC(F)(F)F [Compound 73, 3-[(5-chloro-2-pyrimidinyl)oxy]-2-(5,5,5-trifluoropentyl)benzonitrile] | 100 | 90 | 95 | 100 | 100% | 100% | 15% | 80% | 90% | 85% | 100% | 100% | – | – | – | 5 | 10 | 100 | 100 | Plant response rating, Johnsongrass ([5]; 16 g ai/ha, scale 0 to 100): 0; Plant response rating, Johnsongrass ([5]; 31 g ai/ha, scale 0 to 100): 40; Plant response rating, Johnsongrass ([5]; 62 g ai/ha, scale 0 to 100): 80; Plant response rating, Johnsongrass ([5]; 125 g ai/ha, scale of 0 to 100): 95; Plant response rating, Johnsongrass ([6]; 16 g ai/ha): 5; Plant response rating, Johnsongrass ([6]; 31 g ai/ha): 10; Johnsongrass plant response rating ([6]; 62 g ai/ha): 20; Johnsongrass plant response rating ([6]; 125 g ai/ha): 20
4 | O=C(CCCC(F)(F)F)c1c(Br)cccc1Oc1ncc(Cl)cn1 [Compound 77] | 100 | 85 | 100 | 100 | – | – | – | – | – | – | – | – | 98 | 100 | 100 | 0 | 0 | 98 | 98 | Plant response rating, Barnyardgrass ([2]; 62 g ai/ha, scale of 0 to 100): 98; Plant response rating, Barnyardgrass ([2]; 125 g ai/ha, scale of 0 to 100): 100; Plant response rating, Barnyardgrass ([2]; 16 g ai/ha, scale 0 to 100): 20; Plant response rating, Barnyardgrass ([2]; 31 g ai/ha, scale 0 to 100): 60; Plant response rating, Pigweed ([3]; 16 g ai/ha, scale of 0 to 100): 95
5 | CC(CC(F)(F)F)OC(=O)c1c(Br)cccc1Oc1ncc(Cl)cn1 (centres unmarked) [Compound 16, 3,3,3-trifluoro-1-methylpropyl 2-bromo-6-[(5-chloro-2-pyrimidinyl)oxy]benzoate] | 95 | 0 | 0 | 50 | 30% | 75% | 0% | 15% | 50% | 75% | 85% | 50% | – | – | – | – | – | – | – | –
6 | O=C(OCC(F)(F)C(F)(F)F)c1c(Br)cccc1Oc1ncc(Cl)cn1 [Compound 23, 2,2,3,3,3-pentafluoropropyl 2-bromo-6-[(5-chloro-2-pyrimidinyl)oxy]benzoate] | – | – | – | – | – | – | – | – | 60% | 75% | 70% | 85% | – | – | – | – | – | – | – | Plant response rating, Johnsongrass ([6]; 16 g ai/ha): 0; Plant response rating, Johnsongrass ([6]; 31 g ai/ha): 15; Johnsongrass plant response rating ([6]; 62 g ai/ha): 15; Johnsongrass plant response rating ([6]; 125 g ai/ha): 20
7 | C=CCCOC(=O)c1c(Br)cccc1Oc1ncc(Cl)cn1 [Compound 21, 3-buten-1-yl 2-bromo-6-[(5-chloro-2-pyrimidinyl)oxy]benzoate] | 100 | 5 | 55 | 98 | 90% | 98% | 10% | 55% | 85% | 75% | 90% | 90% | – | – | – | – | 0 | 5 | 100 | –
8 | O=C(OCC(F)(F)F)c1c(Br)cccc1Oc1ncc(Cl)cn1 [Compound 35] | – | – | – | – | – | – | – | – | – | – | – | – | 70 | 90 | 98 | – | – | – | – | Plant response rating, Johnsongrass ([6]; 16 g ai/ha): 0; Plant response rating, Johnsongrass ([6]; 31 g ai/ha): 5; Johnsongrass plant response rating ([6]; 62 g ai/ha): 10; Johnsongrass plant response rating ([6]; 125 g ai/ha): 10; Plant response rating, Pigweed ([3]; 16 g ai/ha, scale 0 to 100): 80
9 | N#Cc1cccc(Oc2ncc(Cl)cn2)c1C(=O)OCCC(F)(F)F [Compound 30] | 100 | 90 | 95 | 100 | – | – | – | – | – | – | – | – | – | – | – | 80 | 10 | 60 | 85 | Plant response rating, Johnsongrass ([5]; 16 g ai/ha, scale 0 to 100): 0; Plant response rating, Johnsongrass ([5]; 31 g ai/ha, scale 0 to 100): 0; Plant response rating, Johnsongrass ([5]; 62 g ai/ha, scale 0 to 100): 0; Plant response rating, Johnsongrass ([5]; 125 g ai/ha, scale of 0 to 100): 15; Plant response rating, Barnyardgrass ([2]; 62 g ai/ha, scale of 0 to 100): 10; Plant response rating, Barnyardgrass ([2]; 125 g ai/ha, scale of 0 to 100): 25; Plant response rating, Barnyardgrass ([2]; 16 g ai/ha, scale 0 to 100): 10; Plant response rating, Barnyardgrass ([2]; 31 g ai/ha, scale 0 to 100): 15
10 | O=C(CCC(F)(F)F)c1c(Br)cccc1Oc1ncc(Cl)cn1 [Compound 92] | 100 | – | 100 | 100 | – | – | – | – | – | – | – | – | 90 | 98 | 100 | – | – | – | – | Plant response rating, Barnyardgrass ([2]; 125 g ai/ha, scale of 0 to 100): 100; Plant response rating, Barnyardgrass ([2]; 16 g ai/ha, scale 0 to 100): 35; Plant response rating, Barnyardgrass ([2]; 31 g ai/ha, scale 0 to 100): 85; Plant response rating, Barnyardgrass ([2]; 62 g ai/ha, scale 0 to 100): 98; Plant response rating, Pigweed ([3]; 16 g ai/ha, scale of 0 to 100): 85
11 | C=CCOC(=O)c1c(Br)cccc1Oc1ncc(Cl)cn1 [Compound 22, 2-propen-1-yl 2-bromo-6-[(5-chloro-2-pyrimidinyl)oxy]benzoate] | – | – | – | – | – | – | – | – | 60% | 70% | 70% | 95% | – | – | – | – | – | – | – | –
12 | O=C(OCCCC(F)(F)F)c1c(Br)cccc1Oc1ncc(Cl)cn1 [Compound 20, 4,4,4-trifluorobutyl 2-bromo-6-[(5-chloro-2-pyrimidinyl)oxy]benzoate] | 100 | 55 | 55 | 100 | 30% | 85% | 0% | 5% | 85% | 95% | 98% | 95% | – | – | – | 10 | 0 | 80 | 95 | –
13 | CCCOC(=O)c1c(Br)cccc1Oc1ncc(Cl)cn1 [Compound 13, propyl 2-bromo-6-[(5-chloro-2-pyrimidinyl)oxy]benzoate] | – | 5 | 60 | – | – | – | 10% | 40% | 75% | 70% | – | – | – | – | – | – | – | – | – | Pigweed plant response rating ([1]; 4 g ai/ha, scale 0 to 100): 5; Pigweed plant response rating ([1]; 8 g ai/ha, scale 0 to 100): 10; Barnyardgrass plant response rating ([2]; 4 g ai/ha, scale 0 to 100): 0; Barnyardgrass plant response rating ([2]; 8 g ai/ha, scale 0 to 100): 0; pest or weed control at 4 g/ha ([3]; Amaranthus retroflexus, post-emergence, 4 g ai/ha, scale of 0 to 100): 30%; pest or weed control at 8 g/ha ([3]; Amaranthus retroflexus, post-emergence, 8 g ai/ha, scale of 0 to 100): 60%
